# In patent publication US20090291945A1, “CYSTEINE PROTEASE INHIBITORS” (Teijin Pharma Limited, priority 2008, published 2009):
# Assays:
# cathepsin K = molecular target: T1, cathepsin K (Homo sapiens, UniProt P43235); assay: Cathepsin K inhibitory activity (fluorescent substrate Z-Leu-Arg-MCA); type: biochemical; settings: enzyme expressed in HEK293T, 15 min preincubation, 30 min reaction at room temperature, pH 5.5; for IC50: read-out: Activity Intensity (cathepsin K inhibitory activity, pIC50 class) (converted)
# T1 construct: the active enzyme was obtained as the enzyme fraction by using detergent containing lysis buffer; made in house; host or cells: HEK293T (GenHunter Corporation), transient expression; detergent lysate used as enzyme fraction
# T1 sequence (P43235 115-329): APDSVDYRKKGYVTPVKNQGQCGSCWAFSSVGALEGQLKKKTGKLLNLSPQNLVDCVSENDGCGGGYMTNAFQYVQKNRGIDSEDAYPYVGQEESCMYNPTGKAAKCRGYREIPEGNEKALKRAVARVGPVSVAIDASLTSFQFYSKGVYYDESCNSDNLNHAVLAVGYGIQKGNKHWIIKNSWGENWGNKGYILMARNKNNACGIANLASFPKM
# Method in brief: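 Enzyme was HEK293T-expressed cathepsin K in pH 5.5 acetate buffer with 2 mM DTT, preincubated 15 min at room temperature with compound. Reaction started with Z-Leu-Arg-MCA (solution prepared at 10 μM), run 30 min, and AMC fluorescence read at 355/460 nm. IC50 taken from the curve of % inhibition vs DMSO.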
# [1] = Metabolic stability test using human liver microsome; type: in vitro ADME; settings: NADPH, 37° C., 25 minutes versus 0 minute, LC/MS peak area
# Description: For the compounds synthesized according to the method of the above Examples and the compounds of formula (B) (the compounds disclosed in WO2002/070517), the metabolic stability test using the human liver microsome was performed and the residual rate of each compound was calculated.
# To a human liver microsome solution (950 μL) was added a test compound solution (10 μL, 100 μM, acetonitrile solution) on an ice bath and the solution was divided into two equal parts, solution A and solution B. Note that the composition of the human liver microsome solution was as follows.
# 20 mg/mL protein human liver microsome (Xenotech LLC Lenexa, US): 10 μL 500 mM potassium phosphate buffer solution (pH 7.4): 200 μL 10 mM EDTA solution: 100 μL 60 mM MgCl2 solution: 50 μL 100 mM glucose-6-phosphate solution: 50 μL 100 I.U./mL glucose-6-phosphate dehydrogenase solution: 10 μL purified water: 530 μL
# To the solution A (480 μL) was added acetonitrile (500 μL) on an ice bath, and then 25 mM NADPH solution (20 μL) was added. After vortexing, the mixture was centrifuged (3,000 rpm) at 4° C. for 10 minutes, and the supernatant was taken as the sample at the reaction time of 0 minute.
# To the solution B (480 μL) was added 25 mM NADPH solution (20 μL). The mixture was incubated at 37° C. for 25 minutes. The reaction was quenched with acetonitrile (500 μL) and vortexing. The mixture was centrifuged (3,000 rpm) at 4° C. for 10 minutes, and the supernatant was taken as the sample at the reaction time of 25 minutes.
# LC/MS measurement was performed for the samples at the reaction time of 0 minute and the reaction time of 25 minutes. Based on the peak area of the target molecular weight in the MS measurement, the residual rate of the sample at the reaction time of 25 minutes to the sample at the reaction time of 0 minute was calculated in percentage.
SMILES,IC50 (cathepsin K) [nM],Residual Rate at 25 minutes (%) [1] [%],"Activity Intensity (cathepsin K inhibitory activity, pIC50 class) (cathepsin K)"
CC(C)C[C@H](N[C@@H](c1ccccc1)C(F)(F)F)C(=O)N[C@@H](CCCCN)CNc1ccc(N2CCOCC2)cc1 [Compound 126],≤ 3.16,90,
CC(C)(F)C[C@H](N[C@@H](c1ccccc1)C(F)(F)F)C(=O)N[C@@H](CCN)CNc1ccc(N2CCOCC2)cc1 [Compound 130],3.16 to 31.6,85,
"CC[C@@H](CNc1ccc(OC(C)(C)C(=O)O)cc1OC)NC(=O)[C@H](CC(C)(C)F)N[C@@H](c1ccccc1)C(F)(F)F [Compound 131, 2-{4-[((2S)-2-{(2S)-2-[((1S)-2,2,2-trifluoro-1-phenylethyl)amino]-4-fluoro-4-methylpentanoylamino}butyl)amino]-3-methoxyphenoxy}-2-methylpropanoic acid]",3.16 to 31.6,123,
"CC[C@@H](CNc1ccc(OC(C)C(=O)O)cc1OC)NC(=O)[C@H](CC(C)(C)F)N[C@@H](c1ccccc1)C(F)(F)F (stereo partly drawn) [Compound 140, 2-{4-[((2S)-2-{(2S)-2-[((1S)-2,2,2-trifluoro-1-phenylethyl)amino]-4-fluoro-4-methylpentanoylamino}butyl)amino]-3-methoxyphenoxy}propanoic acid]",3.16 to 31.6,101,
CC[C@@H](CNc1ccc(OC(F)(F)C(=O)O)cc1OC)NC(=O)[C@H](CC(C)(C)F)N[C@@H](c1ccccc1)C(F)(F)F [Compound 141],31.6 to 10000,70,
CC[C@@H](CNc1ccc(N2CCC(C(=O)O)CC2)cc1)NC(=O)[C@H](CC(C)C)N[C@@H](c1ccccc1)C(F)(F)F [Compound 145],≤ 3.16,88,
CC[C@@H](CNc1ccc(N2CCC(C(=O)O)CC2)cc1)NC(=O)[C@H](CC(C)(C)F)N[C@@H](c1ccccc1)C(F)(F)F [Compound 147],≤ 3.16,80,
CC[C@@H](CNc1ccc(N2CCC[C@H](C(=O)O)C2)cc1)NC(=O)[C@H](CC(C)C)N[C@@H](c1ccccc1)C(F)(F)F [Compound 148],≤ 3.16,85,
CC[C@@H](CNc1ccc(N2CCC[C@@H](C(=O)O)C2)cc1)NC(=O)[C@H](CC(C)C)N[C@@H](c1ccccc1)C(F)(F)F [Compound 149],≤ 3.16,87,
CC[C@@H](CNc1ccc(N2CCC[C@@H](C(=O)O)C2)cc1)NC(=O)[C@H](CC(C)(C)F)N[C@@H](c1ccccc1)C(F)(F)F [Compound 152],≤ 3.16,88,
CC[C@@H](CNc1ccc(N2CCC(C(=O)O)CC2)cc1)NC(=O)[C@H](CC(C)C)N[C@@H](Cc1ccccc1)C(F)(F)F [Compound 153],3.16 to 31.6,53,
CC[C@@H](CNc1ccc(N2CCC(C)(C(=O)O)CC2)cc1)NC(=O)[C@H](CC(C)C)N[C@@H](c1ccccc1)C(F)(F)F [Compound 154],≤ 3.16,74,
CC[C@@H](CNc1ccc(OCCCC(=O)O)cc1OC)NC(=O)[C@H](CC(C)C)N[C@@H](c1ccccc1)C(F)(F)F [Compound 155],≤ 3.16,31,
"CC(C)C[C@H](N[C@@H](c1ccccc1)C(F)(F)F)C(=O)N[C@@H](CCCC(=O)O)CNc1ccc(N2CCOCC2)cc1 [Compound 159, (5S)-5-{(2S)-2-[((1S)-2,2,2-trifluoro-1-phenylethyl)amino]-4-methylpentanoylamino}-6-[(4-morpholin-4-ylphenyl)amino]hexanoic acid]",≤ 3.16,100,

# Now from value to molecule:
IC50 (cathepsin K) [nM],Residual Rate at 25 minutes (%) [1] [%],"Activity Intensity (cathepsin K inhibitory activity, pIC50 class) (cathepsin K)",SMILES
3.16 to 31.6,105,,CC[C@@H](CNc1ccc(OCC(=O)O)cc1OC)NC(=O)[C@H](CC(C)C)N[C@@H](c1cccnc1)C(F)(F)F [Compound 121]
3.16 to 31.6,87,,CC[C@@H](CNc1ccc(OC2(C(=O)O)CC2)cc1OC)NC(=O)[C@H](CC(C)C)N[C@@H](Cc1ccccc1)C(F)(F)F [Compound 124]
3.16 to 31.6,87,,CC(C)C[C@H](N[C@@H](c1ccccc1)C(F)(F)F)C(=O)N[C@@H](CCCN)CNc1ccc(N2CCOCC2)cc1 [Compound 127]
3.16 to 31.6,75,,CC(C)C[C@H](N[C@@H](c1ccccc1)C(F)(F)F)C(=O)N[C@@H](CCN)CNc1ccc(N2CCOCC2)cc1 [Compound 129]
,96,++ (7.5≦pIC50<8.5: ++),CC[C@@H](CNc1ccc(OC(C)C(=O)O)cc1OC)NC(=O)[C@H](CC(C)(C)F)N[C@@H](c1ccccc1)C(F)(F)F (some centres unmarked) [Compound 142]
≤ 3.16,96,,CC[C@@H](CNc1ccc(N2CCO[C@@H](C(=O)O)C2)cc1)NC(=O)[C@H](CC(C)C)N[C@@H](c1ccccc1)C(F)(F)F [Compound 150]
≤ 3.16,90,,CC[C@@H](CNc1ccc(N2CCC[C@H](C(=O)O)C2)cc1)NC(=O)[C@H](CC(C)(C)F)N[C@@H](c1ccccc1)C(F)(F)F [Compound 151]
≤ 3.16,90,,"CC(C)(F)C[C@H](N[C@@H](c1ccccc1)C(F)(F)F)C(=O)N[C@@H](CCCC(=O)O)CNc1ccc(N2CCOCC2)cc1 [Compound 160, (5S)-5-{(2S)-2-[((1S)-2,2,2-trifluoro-1-phenylethyl)amino]-4-fluoro-4-methylpentanoylamino}-6-[(4-morpholin-4-ylphenyl)amino]hexanoic acid]"
